According to patent US9453053B2, “Short peptides for enhancing muscle function” (UNIVERSITAT HEIDELBERG, priority 2010, dated 2016):
“Also recorded” adds a separate entry of the source. Ends that are not written are not given here.

Experiments:
[1] = test system: isolated rat ventricular cardiomyocytes; assay type: cell-based; conditions: for effect on calcium transient amplitudes: FIG. 25, field-stimulated (1 Hz) isolated rat ventricular cardiomyocytes; for increase in the calcium transient amplitude over control cells, functional equivalence compared to S100A1ct6/11: FIG. 26, 2 Hz, peptides added 30 min before assessment
RyR2 = target: T1, RyR2 (Oryctolagus cuniculus, UniProt P30957); experiment: Ca2+-spark frequency in permeabilized cardiomyocytes; assay type: cell-based, rabbit
T1 construct: Adult ventricular rabbit cardiomyocytes were isolated from four different animals; endogenous in cells; host or cells: adult ventricular rabbit cardiomyocytes, permeabilized with beta-escin
T1 sequence (P30957 whole entry): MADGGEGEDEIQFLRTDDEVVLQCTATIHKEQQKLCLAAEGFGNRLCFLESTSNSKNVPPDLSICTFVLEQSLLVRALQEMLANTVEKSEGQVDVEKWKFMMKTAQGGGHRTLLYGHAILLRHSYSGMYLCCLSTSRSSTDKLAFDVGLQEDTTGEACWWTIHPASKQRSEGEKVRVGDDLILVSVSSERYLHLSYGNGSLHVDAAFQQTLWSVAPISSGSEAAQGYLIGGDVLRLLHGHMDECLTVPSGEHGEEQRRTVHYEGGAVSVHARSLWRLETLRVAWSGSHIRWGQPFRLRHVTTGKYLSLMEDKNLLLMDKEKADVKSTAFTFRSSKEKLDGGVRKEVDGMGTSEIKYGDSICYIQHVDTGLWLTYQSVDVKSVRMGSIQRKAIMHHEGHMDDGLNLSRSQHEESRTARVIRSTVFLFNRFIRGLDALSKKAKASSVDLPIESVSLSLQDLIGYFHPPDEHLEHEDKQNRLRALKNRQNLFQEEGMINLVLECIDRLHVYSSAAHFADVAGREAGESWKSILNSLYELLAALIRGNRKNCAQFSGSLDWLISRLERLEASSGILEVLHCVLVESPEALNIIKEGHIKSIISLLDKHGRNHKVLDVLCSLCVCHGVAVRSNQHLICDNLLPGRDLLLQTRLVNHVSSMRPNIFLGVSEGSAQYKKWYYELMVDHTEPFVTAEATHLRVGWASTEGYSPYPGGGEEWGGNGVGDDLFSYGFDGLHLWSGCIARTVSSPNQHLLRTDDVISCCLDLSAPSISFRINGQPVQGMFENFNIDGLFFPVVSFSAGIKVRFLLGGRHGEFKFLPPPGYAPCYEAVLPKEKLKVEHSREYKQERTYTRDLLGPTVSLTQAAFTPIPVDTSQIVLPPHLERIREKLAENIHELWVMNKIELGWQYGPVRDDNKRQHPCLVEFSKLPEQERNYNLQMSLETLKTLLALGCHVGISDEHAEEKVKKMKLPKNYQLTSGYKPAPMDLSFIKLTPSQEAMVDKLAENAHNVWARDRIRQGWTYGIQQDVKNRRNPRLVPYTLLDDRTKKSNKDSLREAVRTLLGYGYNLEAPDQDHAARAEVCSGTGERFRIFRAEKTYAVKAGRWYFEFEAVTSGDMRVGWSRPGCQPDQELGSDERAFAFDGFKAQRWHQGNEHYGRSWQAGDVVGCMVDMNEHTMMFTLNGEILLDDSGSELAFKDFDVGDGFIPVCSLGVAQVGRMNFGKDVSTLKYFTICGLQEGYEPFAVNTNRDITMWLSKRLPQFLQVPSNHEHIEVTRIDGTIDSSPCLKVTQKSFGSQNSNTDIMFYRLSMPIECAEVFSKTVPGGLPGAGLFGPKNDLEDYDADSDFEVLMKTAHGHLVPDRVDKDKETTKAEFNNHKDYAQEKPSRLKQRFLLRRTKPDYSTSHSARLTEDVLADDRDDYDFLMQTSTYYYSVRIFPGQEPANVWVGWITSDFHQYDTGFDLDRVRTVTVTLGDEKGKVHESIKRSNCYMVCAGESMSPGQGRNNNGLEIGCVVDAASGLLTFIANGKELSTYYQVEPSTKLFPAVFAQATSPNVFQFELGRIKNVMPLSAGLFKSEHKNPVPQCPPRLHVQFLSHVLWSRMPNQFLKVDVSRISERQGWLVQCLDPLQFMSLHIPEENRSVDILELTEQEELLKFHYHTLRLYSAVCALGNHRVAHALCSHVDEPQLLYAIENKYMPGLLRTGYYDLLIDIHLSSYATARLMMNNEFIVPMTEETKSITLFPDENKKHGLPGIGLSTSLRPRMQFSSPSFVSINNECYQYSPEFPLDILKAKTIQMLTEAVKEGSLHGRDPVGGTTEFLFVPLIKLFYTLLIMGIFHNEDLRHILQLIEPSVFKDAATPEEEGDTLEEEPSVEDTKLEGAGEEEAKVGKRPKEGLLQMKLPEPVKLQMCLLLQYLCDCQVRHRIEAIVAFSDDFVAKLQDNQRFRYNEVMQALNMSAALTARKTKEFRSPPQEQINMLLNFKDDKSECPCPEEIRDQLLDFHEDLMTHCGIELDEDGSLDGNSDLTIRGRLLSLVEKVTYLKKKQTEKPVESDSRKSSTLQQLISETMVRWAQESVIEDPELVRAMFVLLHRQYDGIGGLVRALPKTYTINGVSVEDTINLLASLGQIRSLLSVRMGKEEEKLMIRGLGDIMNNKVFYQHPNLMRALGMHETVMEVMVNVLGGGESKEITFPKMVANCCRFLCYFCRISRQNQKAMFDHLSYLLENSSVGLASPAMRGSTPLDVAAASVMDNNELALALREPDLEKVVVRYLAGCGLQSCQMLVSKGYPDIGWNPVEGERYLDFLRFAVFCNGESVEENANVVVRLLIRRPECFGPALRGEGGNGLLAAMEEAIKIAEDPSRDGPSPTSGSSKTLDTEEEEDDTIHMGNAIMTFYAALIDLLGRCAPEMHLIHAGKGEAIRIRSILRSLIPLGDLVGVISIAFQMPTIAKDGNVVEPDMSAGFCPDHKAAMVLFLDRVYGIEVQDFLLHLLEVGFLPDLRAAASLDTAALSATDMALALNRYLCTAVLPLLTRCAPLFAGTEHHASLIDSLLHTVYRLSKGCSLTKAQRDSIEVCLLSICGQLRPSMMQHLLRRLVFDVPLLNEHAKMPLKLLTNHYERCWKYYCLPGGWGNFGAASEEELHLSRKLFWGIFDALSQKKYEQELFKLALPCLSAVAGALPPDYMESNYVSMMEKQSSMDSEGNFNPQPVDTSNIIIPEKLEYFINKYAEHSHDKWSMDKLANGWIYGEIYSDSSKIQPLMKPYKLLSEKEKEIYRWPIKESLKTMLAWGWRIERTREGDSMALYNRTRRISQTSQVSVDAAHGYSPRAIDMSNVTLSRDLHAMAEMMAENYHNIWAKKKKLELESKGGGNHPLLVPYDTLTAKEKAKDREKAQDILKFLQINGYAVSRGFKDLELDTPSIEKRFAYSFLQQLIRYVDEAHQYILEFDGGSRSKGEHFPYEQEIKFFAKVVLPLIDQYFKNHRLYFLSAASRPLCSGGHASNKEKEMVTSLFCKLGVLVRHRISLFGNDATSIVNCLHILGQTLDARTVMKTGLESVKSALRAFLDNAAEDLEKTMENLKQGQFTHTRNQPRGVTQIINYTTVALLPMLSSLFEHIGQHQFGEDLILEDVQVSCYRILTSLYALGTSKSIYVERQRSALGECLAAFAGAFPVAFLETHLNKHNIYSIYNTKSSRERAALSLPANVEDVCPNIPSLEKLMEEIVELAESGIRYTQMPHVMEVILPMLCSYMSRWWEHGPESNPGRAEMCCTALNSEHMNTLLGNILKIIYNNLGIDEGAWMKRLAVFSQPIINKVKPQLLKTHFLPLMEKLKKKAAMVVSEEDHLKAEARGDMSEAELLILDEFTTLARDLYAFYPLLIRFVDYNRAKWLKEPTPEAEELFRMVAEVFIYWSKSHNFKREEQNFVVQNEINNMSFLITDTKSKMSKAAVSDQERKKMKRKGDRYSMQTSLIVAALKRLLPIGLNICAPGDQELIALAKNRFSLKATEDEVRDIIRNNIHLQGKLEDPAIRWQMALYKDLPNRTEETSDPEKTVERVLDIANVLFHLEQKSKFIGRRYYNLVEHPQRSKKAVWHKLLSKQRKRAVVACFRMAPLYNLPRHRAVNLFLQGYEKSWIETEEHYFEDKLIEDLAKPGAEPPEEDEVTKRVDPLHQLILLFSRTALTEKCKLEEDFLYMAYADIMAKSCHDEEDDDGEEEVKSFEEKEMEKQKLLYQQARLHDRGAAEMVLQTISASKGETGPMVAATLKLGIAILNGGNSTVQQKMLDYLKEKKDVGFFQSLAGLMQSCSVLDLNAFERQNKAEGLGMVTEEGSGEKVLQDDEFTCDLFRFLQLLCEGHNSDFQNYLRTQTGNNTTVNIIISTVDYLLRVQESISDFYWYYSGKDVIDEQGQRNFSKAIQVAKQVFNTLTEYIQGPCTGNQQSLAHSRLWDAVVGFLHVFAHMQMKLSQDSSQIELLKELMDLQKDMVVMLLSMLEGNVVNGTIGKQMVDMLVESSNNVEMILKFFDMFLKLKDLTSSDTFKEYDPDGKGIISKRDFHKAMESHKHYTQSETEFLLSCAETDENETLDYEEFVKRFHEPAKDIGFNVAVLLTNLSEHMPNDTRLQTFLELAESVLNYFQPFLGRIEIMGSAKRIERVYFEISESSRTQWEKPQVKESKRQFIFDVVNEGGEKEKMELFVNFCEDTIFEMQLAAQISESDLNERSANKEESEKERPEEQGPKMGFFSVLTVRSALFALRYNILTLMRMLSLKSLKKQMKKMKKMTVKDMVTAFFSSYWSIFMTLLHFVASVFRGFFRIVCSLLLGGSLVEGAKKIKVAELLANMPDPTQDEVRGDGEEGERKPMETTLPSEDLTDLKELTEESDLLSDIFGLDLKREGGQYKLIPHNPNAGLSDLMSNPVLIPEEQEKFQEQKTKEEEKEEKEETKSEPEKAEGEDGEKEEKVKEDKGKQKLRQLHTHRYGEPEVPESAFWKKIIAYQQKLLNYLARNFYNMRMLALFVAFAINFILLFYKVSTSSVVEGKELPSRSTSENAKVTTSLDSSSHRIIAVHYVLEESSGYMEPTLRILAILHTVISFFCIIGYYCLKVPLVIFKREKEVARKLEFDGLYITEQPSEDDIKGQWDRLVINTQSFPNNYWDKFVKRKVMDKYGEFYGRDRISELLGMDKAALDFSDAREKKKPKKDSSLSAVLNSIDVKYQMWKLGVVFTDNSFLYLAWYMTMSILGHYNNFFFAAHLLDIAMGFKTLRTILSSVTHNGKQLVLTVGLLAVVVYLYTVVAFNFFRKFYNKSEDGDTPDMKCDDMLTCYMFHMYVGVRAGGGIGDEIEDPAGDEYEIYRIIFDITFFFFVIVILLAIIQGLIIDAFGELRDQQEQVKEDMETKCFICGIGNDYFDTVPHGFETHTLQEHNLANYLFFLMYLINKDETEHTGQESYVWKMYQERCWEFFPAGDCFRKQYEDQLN
Experimental: Adult ventricular rabbit cardiomyocytes were isolated from four different animals as previously described (Loughrey C. M. et al., 2004, J. Physiol. 556:919-934) and permeabilized using β-escin (0.1 mg/ml). The permeabilized cells were incubated for 1 minute with rhodamine-labeled human S100A1 protein (0.1 μM) or FITC-labeled S100A1 C-terminal 20-mer peptide (0.1 μM) fused to a hydrophilic element (i.e. amino acids 75 to 94 of human S100A1 fused to the hydrophilic element D-K-D-D-P-P (SEQ ID NO: 17)). Cells were monitored using a Bio-Rad 2000 laser scanning confocal microscope (LSCM). A striated staining pattern can be observed that resembles the ryanodine staining pattern (FIG. 4).
Furthermore, Ca^2+-spark frequency has been assessed in the permeabilized cells treated with S100A1 protein or the S100A1 C-terminal 20-mer peptide fused to a hydrophilic element and it was shown that both, the full-length protein as well as the C-terminal fragment, decrease calcium spark frequency in permeabilized cardiomyocytes (FIGS. 5 and 6). […] Fluo-3 free acid (10 μM) present in the perfusing solution was excited at 488 nm (Kr-laser) and measured at >515 nm applying epifluorescence optics of an inverted microscope with a ×60-1.2 NA water-immersion objective lens. Fluorescence was acquired in line scan mode at 2 ms line^−1; pixel dimension was 0.3 μm (512 pixels scan^−1; zoom=1.4). […]

[2] = test system: permeabilized EDL murine skeletal muscle fibers; experiment: Isometric twitch force in permeabilized skeletal muscle fibers; assay type: cell-based, mouse
Experimental: Muscle Fiber Preparation and Experimental Solutions. All of the animals were handled according to the guidelines of the animal care committee of the University of Heidelberg. Male BALB/c mice (3-6-months-old) were sacrificed by an overdose of carbon dioxide, and muscle fiber preparation was carried out as previously described (Fink R. H. and Stephenson D. G., 1987, Pflugers Arch. Eur. J. Physiol. 409:374-380; Makabe M. et al., 1996, Pflugers Arch. Eur. J. Physiol. 432: 717-726). Either EDL (M. ext. dig. longum) or Soleus was isolated, and a small fiber bundle containing two to four single fibers (between 80 and 150 μm in diameter and 3-4-mm-long) was dissected in paraffin oil. […] The free ion concentrations were calculated with the computer program REACT (version 2.0) from G. L. Smith (Glasgow, Scotland). […]
It was shown that both, the full-length S100A1 protein as well as the C-terminal fragment, has a potency to enhance isometric twitch force in permeabilized murine skeletal muscle fibers (FIG. 7). […] Maximum force was measured in the high activating solution at pCa 4.28 and 5 mM caffeine. […] Several control transients were recorded before the fiber was exposed to the S100A1 protein or the S100A1 peptide mixture (N/H/C) or the C-terminal 20-mer alone, and the experiment was repeated as outlined above. […]

[3] = test system: adult intact cardiomyocytes or skeletal muscle fibers; experiment: Calcium homeostasis in adult intact cardiomyocytes or skeletal muscle fibers; assay type: cell-based; conditions: adult intact (non-permeabilized) cardiomyocytes or skeletal muscle fibers

| Substance | effect on calcium transient amplitudes [1] | increase in the calcium transient amplitude over control cells, functional equivalence compared to S100A1ct6/11 [1] | other results |
| --- | --- | --- | --- |
| D-K-D-D-P-P (DKDDPP; hydrophilic motif) [hydrophobic element, 6-mer hydrophilic motif tested alone as control, reference compound] | do not exhibit the inotropic effect |  |  |
| D-K-D-D-P-P-L-V-A-A-L-T-V-A (DKDDPPLVAALTVA) [N-78-85-C] | abolishes the inotropic effect |  |  |
| D-K-D-D-P-P-V-A-A-L-T-V-A (DKDDPPVAALTVA; Functional peptide (Fig. 26)) [79-85] | abolishes the inotropic effect | partial functional equivalence |  |
| D-K-D-D-P-P-V-L-V-A-A-L-T-V-A (DKDDPPVLVAALTVA; Functional peptide (Fig. 26)) [77-85] | abolishes the inotropic effect | partial functional equivalence |  |
| D-K-D-D-P-P-V-V-L-V-A-A-L (DKDDPPVVLVAAL; Functional peptide (Fig. 26)) [76-82] |  | partial functional equivalence |  |
| D-K-D-D-P-P-V-V-L-V-A-A-L-T (DKDDPPVVLVAALT; Functional peptide (Fig. 26)) [76-83] |  | partial functional equivalence |  |
| D-K-D-D-P-P-V-V-L-V-A-A-L-T-V (DKDDPPVVLVAALTV; Functional peptide (Fig. 26)) [76-84] |  | full functional equivalence |  |
| DKDDPPYVVLVAALTVA [S100A1ct6/11, D-K-D-D-P-P-Y-V-V-L-V-A-A-L-T-V-A (SEQ ID NO: 42)] |  |  | EC50 [1]: 0.087 ± 0.006 µM |
| S100A1 protein: native human S100A1 protein, 94 amino acids, SEQ ID NO: 38; recombinant, rhodamine-labeled for imaging |  |  | diastolic calcium spark frequency and RyR2 activity (RyR2): decreases; isometric twitch force [2]: enhances; also recorded: equivalent biological potency to enhance isometric force; calcium homeostasis [3]: does not alter |
| YVVLVAALTVACNNFFWENS (SEQ ID NO: 39) (YVVLVAALTVACNNFFWENS; amino acids 75 to 94 of human S100A1) [20-mer S100A1 C-terminal peptide, amino acids 75-94 of human S100A1, reference compound] |  |  | diastolic calcium spark frequency and RyR2 activity (RyR2): decreases; isometric twitch force [2]: enhances; also recorded: equivalent biological potency to enhance isometric force; calcium homeostasis [3]: does not alter |
